Data set [1] has as its system SARS-CoV-2 isolate USA-WA1/2020. The settings on record: A549 AT cells.
For data set [2] the test system is unchanged. Nature of the data set: microbe, parasite or virus in culture. The settings on record: for pEC50: Severe acute respiratory syndrome coronavirus 2, A549-ACE2, 48 h; for inhibition at 10 µM: Severe acute respiratory syndrome coronavirus 2, A549-ACE2, read-out: % inhibition at 10 μM (EC50).
Another data set relates to A549/ACE2/TMPRSS2 cells. Nature of the data set: in vitro. The method, then:
(§1) Percentage of infected cells was determined by dividing the number of infected cells by the total number of cells per well. The percentage of infected cells and total number of cells for each treatment was plotted into GraphPad prism (GraphPad Software; San Diego, CA, USA) to perform a non-linear regression analysis, generate infectious dose-response curves and to calculate EC50 and CC50 values.
(§2) Viability assays for the non-infected A549/ACE2/TMPRSS2 cells were performed using the 3-(4,5-dimethylthiazol-2-yl)-5-(3-carboxymethoxyphenyl)-2-(4-sulfophenyl)-2H-tetrazolium (MTS)-based tetrazolium reduction CellTiter 96 Aqueous Non-Radioactive cell proliferation assay (Promega G5430; Madison, WI) as described. Assays were conducted using parallel plates to those used in the immunofluorescence assay. Experimental details (cell line, number of cells seeded and incubation time) corresponded to those used in the immunofluorescence assay above. The data obtained were used to calculate the CC50 value using GraphPad Prism software.

A further data set can be described thus: in vitro. The conditions noted are these: human. The method, then: as §1, §2
For another data set, the target named is SARS-CoV-2 Nsp14 MTase (Severe acute respiratory syndrome coronavirus 2, UniProt P0DTD1). Kind of data set: biochemical. The data set is classed as biochemical.
A short description of data set [3]: Liver S9 stability assay, mouse liver S9. The conditions noted are these: cofactor UDPGA, n = 2, mean±SD.
Where [4] appears, read: LC-MS/MS detection of SAH, read-out: MTase IC50.

pEC50, pIC50: −log10 of the molar value. Read-outs that look alike come from different tables or passages of the source.

Take `CC(=O)O[C@@H]1[C@H](OC(C)=O)[C@@H](CNS(=O)(=O)c2ccc3ccccc3c2)O[C@H]1c1ccc2c(N)ncnn12` [Compound 11, (2S,3S,4R,5R)-2-(4-Aminopyrrolo[2,1-f][1,2,4]triazin-7-yl)-5-((naphthalene-2-sulfonamido)methyl)tetrahydrofuran-3,4-diyl diacetate]: the “antiviral activity” value in data set [1] is recorded as “less active”. In data set [2], the negative logarithm of the EC50 (pEC50) is 5.37. In addition, the CC50 in the data set with A549/ACE2/TMPRSS2 cells (A549/ACE2/TMPRSS2 cells) worked out at 63 µM. Besides, the “cytotoxicity” value with A549/ACE2/TMPRSS2 cells (human, 100 μM) is reported as “more toxic than 10”.

Molecule `Nc1ncnn2c([C@@H]3O[C@H](CNS(=O)(=O)c4cccc5ccccc45)[C@@H](O)[C@H]3O)ccc12` [Compound 12, N-(((2R,3S,4R,5S)-5-(4-Aminopyrrolo[2,1-f][1,2,4]triazin-7-yl)-3,4-dihydroxytetrahydrofuran-2-yl)methyl)naphthalene-1-sulfonamide] showed a negative logarithm of the EC50 (pEC50) in data set [2] of 5.52. Also, in “in vitro”, the CC50 was above 100 µM. Also, the pIC50 on SARS-CoV-2 Nsp14 MTase (setting [4]) was 5.14.

Turning to `Nc1ncnn2c([C@@H]3O[C@H](CNS(=O)(=O)c4cc5ccccc5s4)[C@@H](O)[C@H]3O)ccc12` [Compound 13, N-(((2R,3S,4R,5S)-5-(4-aminopyrrolo[2,1-f][1,2,4]triazin-7-yl)-3,4-dihydroxytetrahydrofuran-2-yl)methyl)benzo[b]thiophene-2-sulfonamide], in data set [2], the pEC50 was 5.80. This molecule showed a CC50 in “in vitro” above 100 µM. Further, the negative logarithm of the IC50 (pIC50) on SARS-CoV-2 Nsp14 MTase was 7.38.

In data set [2], `Nc1ncnn2c([C@@H]3O[C@H](CNS(=O)(=O)c4csc5ccccc45)[C@@H](O)[C@H]3O)ccc12` [Compound 14, N-(((2R,3S,4R,5S)-5-(4-Aminopyrrolo[2,1-f][1,2,4]triazin-7-yl)-3,4-dihydroxytetrahydrofuran-2-yl)methyl)benzo[b]thiophene-3-sulfonamide] gave a negative-log EC50 (pEC50) of 4.89. Also, the CC50 in “in vitro” was above 100 µM. For the same molecule, the pIC50 at SARS-CoV-2 Nsp14 MTase (setting [4]) was 5.70.

In turn, `Nc1ncnn2c([C@@H]3O[C@H](CNS(=O)(=O)c4ccc5ccccc5c4)[C@@H](O)[C@H]3O)cc(I)c12` [Compound 49, N-(((2R,3S,4R,5S)-5-(4-Amino-5-iodopyrrolo[2,1-f][1,2,4]triazin-7-yl)-3,4-dihydroxytetrahydrofuran-2-yl)methyl)naphthalene-2-sulfonamide] showed a pEC50 in data set [2] of 4.96. Also, the CC50 in “in vitro” amounted to 28 µM. For the same molecule, the pIC50 at SARS-CoV-2 Nsp14 MTase (setting [4]) is 7.34.

On to `Nc1ncnc2c1ncn2[C@@H]1C[C@H](CNS(=O)(=O)c2ccc3ccccc3c2)[C@@H](O)[C@H]1O` [Compound A1, N-(((1R,2R,3S,4R)-4-(6-Amino-9H-purin-9-yl)-2,3-dihydroxycyclopentyl)methyl)naphthalene-2-sulfonamide], for which the inhibition at 10 µM in data set [2] came out at 33%. Also, the CC50 in the data set “in vitro” was above 100 µM. The molecule further showed a negative-log IC50 (pIC50) against SARS-CoV-2 Nsp14 MTase of 6.11.

With `CCN(C[C@H]1C[C@@H](n2cnc3c(N)ncnc32)[C@H](O)[C@@H]1O)S(=O)(=O)c1ccc2ccccc2c1` [Compound A2, N-(((1R,2R,3S,4R)-4-(6-Amino-9H-purin-9-yl)-2,3-dihydroxycyclopentyl)methyl)-N-ethylnaphthalene-2-sulfonamide], the inhibition at 10 µM in data set [2] was 29%. The molecule also showed a CC50 in “in vitro” above 100 µM. Also, the pIC50 on SARS-CoV-2 Nsp14 MTase (setting [4]) is 6.59.

Take `Nc1ncnc2c1ncn2[C@@H]1C[C@H](CNS(=O)(=O)c2ccc3ccccc3c2)[C@H](O)[C@@H]1O` [Compound A3, N-(((1R,2S,3R,4R)-4-(6-Amino-9H-purin-9-yl)-2,3-dihydroxycyclopentyl)methyl)naphthalene-2-sulfonamide]: the inhibition at 10 µM in data set [2] came to 41%. The CC50 in “in vitro” is above 100 µM. The molecule also had a negative-log IC50 (pIC50) on SARS-CoV-2 Nsp14 MTase of 3.99.

Consider `CCN(C[C@H]1C[C@@H](n2cnc3c(N)ncnc32)[C@@H](O)[C@H]1O)S(=O)(=O)c1ccc2ccccc2c1` [Compound A4, N-(((1R,2S,3R,4R)-4-(6-Amino-9H-purin-9-yl)-2,3-dihydroxycyclopentyl)methyl)-N-ethylnaphthalene-2-sulfonamide], for which the inhibition at 10 µM in data set [2] was determined as 34%. In the data set “in vitro”, this molecule showed a CC50 above 100 µM. Further, on SARS-CoV-2 Nsp14 MTase (setting [4]), the negative-log IC50 (pIC50) was 5.29.

Take `O=c1ccc2ccc(O)cc2o1` [Umbelliferone, reference compound]: the “Mouse Liver S9 Stability t1/2, Phase II” value in data set [3] came to 48 ± 0.3 s.

The values above are taken from US20260000698A1 (priority 2022, published 2026).
